Biological target: T1, epithelial sodium channel (Canis lupus familiaris, UniProt A0A8I3MKE6+A0A8I3Q679+Q95165)
T1 construct: endogenous in cells; host or cells: primary canine bronchial epithelial cells cultured at air-liquid interface
T1 sequence (A0A8I3Q679 1-649): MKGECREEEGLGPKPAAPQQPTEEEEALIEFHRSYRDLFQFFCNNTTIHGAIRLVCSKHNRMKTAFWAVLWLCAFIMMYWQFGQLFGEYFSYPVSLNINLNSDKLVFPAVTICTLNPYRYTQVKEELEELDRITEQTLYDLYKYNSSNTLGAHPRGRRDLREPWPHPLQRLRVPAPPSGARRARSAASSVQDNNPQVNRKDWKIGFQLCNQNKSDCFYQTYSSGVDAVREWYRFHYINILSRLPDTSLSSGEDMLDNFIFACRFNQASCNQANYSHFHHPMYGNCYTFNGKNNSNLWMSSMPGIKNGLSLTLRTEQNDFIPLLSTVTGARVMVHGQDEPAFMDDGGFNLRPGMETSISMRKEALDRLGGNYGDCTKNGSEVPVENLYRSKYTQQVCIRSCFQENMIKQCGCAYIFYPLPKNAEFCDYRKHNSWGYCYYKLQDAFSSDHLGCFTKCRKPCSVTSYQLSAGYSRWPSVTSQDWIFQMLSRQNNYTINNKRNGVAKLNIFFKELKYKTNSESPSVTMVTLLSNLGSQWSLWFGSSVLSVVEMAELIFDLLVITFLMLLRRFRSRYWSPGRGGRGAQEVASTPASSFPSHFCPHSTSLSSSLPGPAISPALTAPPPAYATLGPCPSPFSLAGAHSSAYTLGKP
T1 sequence (Q95165 1-641): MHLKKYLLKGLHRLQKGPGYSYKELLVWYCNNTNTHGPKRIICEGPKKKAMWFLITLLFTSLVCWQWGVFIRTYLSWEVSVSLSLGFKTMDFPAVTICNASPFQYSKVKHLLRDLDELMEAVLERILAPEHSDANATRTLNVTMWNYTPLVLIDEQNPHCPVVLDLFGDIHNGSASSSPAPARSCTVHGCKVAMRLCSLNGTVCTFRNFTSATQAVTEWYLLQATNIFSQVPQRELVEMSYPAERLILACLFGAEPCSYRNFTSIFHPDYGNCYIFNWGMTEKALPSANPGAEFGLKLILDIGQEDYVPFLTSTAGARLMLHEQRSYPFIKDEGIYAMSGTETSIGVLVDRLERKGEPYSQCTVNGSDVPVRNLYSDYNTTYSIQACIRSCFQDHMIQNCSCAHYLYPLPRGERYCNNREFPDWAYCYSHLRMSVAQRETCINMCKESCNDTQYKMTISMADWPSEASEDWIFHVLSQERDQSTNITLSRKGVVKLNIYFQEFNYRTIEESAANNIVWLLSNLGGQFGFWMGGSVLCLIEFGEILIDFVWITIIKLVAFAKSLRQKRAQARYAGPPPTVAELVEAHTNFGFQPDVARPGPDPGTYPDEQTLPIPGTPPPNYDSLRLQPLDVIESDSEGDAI
T1 sequence (A0A8I3MKE6 1-646): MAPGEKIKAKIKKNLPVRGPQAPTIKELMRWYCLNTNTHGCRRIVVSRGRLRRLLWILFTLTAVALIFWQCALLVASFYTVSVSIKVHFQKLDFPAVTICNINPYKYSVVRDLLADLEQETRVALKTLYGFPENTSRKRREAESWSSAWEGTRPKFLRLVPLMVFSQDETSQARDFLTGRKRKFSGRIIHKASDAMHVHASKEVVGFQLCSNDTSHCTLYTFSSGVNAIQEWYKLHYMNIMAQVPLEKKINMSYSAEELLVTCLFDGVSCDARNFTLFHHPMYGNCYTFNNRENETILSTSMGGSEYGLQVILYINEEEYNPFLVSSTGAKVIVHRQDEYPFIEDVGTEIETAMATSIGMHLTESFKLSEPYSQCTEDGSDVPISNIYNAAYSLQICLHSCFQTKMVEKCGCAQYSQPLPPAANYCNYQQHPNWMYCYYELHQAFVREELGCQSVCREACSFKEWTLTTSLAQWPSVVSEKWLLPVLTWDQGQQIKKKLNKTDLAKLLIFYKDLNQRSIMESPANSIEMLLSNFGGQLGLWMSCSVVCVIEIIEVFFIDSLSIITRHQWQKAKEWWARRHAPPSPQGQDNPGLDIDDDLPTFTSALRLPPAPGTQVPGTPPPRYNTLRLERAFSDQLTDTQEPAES
Test: Inhibition of short-circuit current (ISC) in airway epithelial monolayers in Ussing chambers
Format: cell-based, canine
Details: canine bronchial epithelial cells, short-circuit current; read-out: Potency of Sodium Channel Blockade IC50
Protocol: One assay used to assess mechanism of action and/or potency of the compounds of the present invention involves the determination of lumenal drug inhibition of airway epithelial sodium currents measured under short circuit current (ISC) using airway epithelial monolayers mounted in Using chambers. Cells obtained from freshly excised human, dog, sheep or rodent airways are seeded onto porous 0.4 micron Snapwelff Inserts (CoStar), cultured at air-liquid interface (ALI) conditions in hormonally defined media, and assayed for sodium transport activity (ISC) while bathed in Krebs Bicarbonate Ringer (KBR) in Using chambers. All test drug additions are to the lumenal bath with half-log dose addition protocols (from 1×10^−11 M to 3×10^−5 M), and the cumulative change in ISC (inhibition) recorded. All drugs are prepared in dimethyl sulfoxide as stock solutions at a concentration of 1×10^−2 M and stored at −20° C. […] After the maximal concentration ([…]) is administered, the lumenal bath is exchanged three times with fresh drug-free KBR solution, and the resultant ISC measured after each wash for approximately 5 minutes in duration. Reversibility is defined as the percent return to the baseline value for sodium current after the third wash. All data from the voltage clamps are collected via a computer interface and analyzed off-line.
Dose-effect relationships for all compounds are considered and analyzed by the Prism 3.0 program.

## N=C(NCCCCc1ccc(C[C@H](N)C(=O)Nc2ccc(CCCN(C[C@H](O)[C@@H](O)[C@H](O)[C@H](O)CO)C[C@H](O)[C@@H](O)[C@H](O)[C@H](O)CO)cc2)c2ccccc12)NC(=O)c1nc(Cl)c(N)nc1N [Compound 33, 3,5-diamino-N—(N-(4-(4-((S)-2-amino-3-(4-(3-(bis((2S,3R,4R,5R)-2,3,4,5,6-pentahydroxyhexyl)amino)propyl)phenylamino)-3-oxopropyl)naphthalen-1-yl)butyl)carbamimidoyl)-6-chloropyrazine-2-carboxamide]
  IC50: 21.8 nM

Reference: patent publication US9593084B2 (Parion Sciences, Inc., priority 2012, dated 2017)
